According to US20260272865A1, “HYDROXYPHENYL PROPANOATE COMPOUNDS FOR TUMOUR IMMUNOTHERAPY, COMPOSITIONS AND USES THEREOF” (UTI LIMITED PARTNERSHIP, priority 2023, published 2026):

What was measured:
IRF pathway = assay type: cell-based, human
GSDMD = biological target: T1, GSDMD (Homo sapiens, UniProt P57764); assay: Thermal proteomic profiling (TPP) in intact THP1-Dual cells; assay type: binding
T1 construct: host or cells: THP1-Dual cells (human monocytic reporter line)
T1 sequence (P57764 1-484): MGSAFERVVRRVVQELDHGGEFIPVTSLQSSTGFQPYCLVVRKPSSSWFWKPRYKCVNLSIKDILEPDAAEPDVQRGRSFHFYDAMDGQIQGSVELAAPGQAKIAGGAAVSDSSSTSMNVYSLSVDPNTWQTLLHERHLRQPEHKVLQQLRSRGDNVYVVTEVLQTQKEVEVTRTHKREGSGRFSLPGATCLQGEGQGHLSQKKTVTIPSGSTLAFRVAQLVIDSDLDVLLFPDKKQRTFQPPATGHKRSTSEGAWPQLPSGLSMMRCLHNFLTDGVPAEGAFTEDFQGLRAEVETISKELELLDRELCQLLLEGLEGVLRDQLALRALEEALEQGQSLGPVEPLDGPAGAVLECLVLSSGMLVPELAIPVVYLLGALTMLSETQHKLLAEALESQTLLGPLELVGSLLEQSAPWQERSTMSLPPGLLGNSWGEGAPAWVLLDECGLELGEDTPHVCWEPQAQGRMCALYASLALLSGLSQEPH
Method: 24 mL of THP1-Dual™ cells (at a density of 1.5×10^6 cells/mL) were treated with 2 mM metabolite or vehicle control for 16 hours. The cells were then centrifuged at 340×g for 5 minutes at 4° C., resuspended in 20 mL of ice-cold PBS, and centrifuged again. The cells were resuspended in 1200 μL of PBS, divided into 10 aliquots of 100 μL in 0.2 mL PCR tubes and centrifuged at 325×g for 2 minutes at 4° C. 80 μL of the PBS supernatant was removed using a pipette and the tubes were gently tapped to resuspend the cells. Each of the metabolite and vehicle-treated cell tubes were then heated in parallel in a PCR machine for 3 minutes at temperatures ranging from 37° C. to 67° C. […] The entire content was centrifuged at 100,000×g for 20 minutes at 4° C., the supernatant was removed into a fresh tube, and the protein concentration of the 37° C. sample was measured. […] The volume of lysate that gave 200 μg of protein at the 37° C. temperature point was determined and removed into a fresh tube for all other temperature points.
The proteins were cleaned up and the peptides digested following previously described methods (Science 346, (2014); Nat. Protoc. 10, 1567-1593 (2015)). […] The next day, the digested peptides were transferred to a fresh Eppendorf™ tube and the concentration of peptides measured in the 37° C. temperature point. […]

[1] = tested on: GSDMD-mediated anti-tumour immunity; assay: Orthotopic M3-9-M^OVA RMS in WT vs GSDMD-KO mice; assay type: in vivo, mouse
Description: It was hypothesized that the HPP metabolite enhances cancer immunity by targeting a critical signalling protein involved in the NF-κB pathway. […] Through nonparametric analysis of the response curves (NPARC) (Mol. Cell. Proteomics 18, (2019)), 647 potential protein targets of 3,2-HPP metabolite were identified (FIG. 10b). To narrow down the investigation, GSDMD was focused on (FIG. 10c, d), which is a cell membrane pore-forming protein that plays a critical role in inflammasome pathway, IL-1β release and tumour immunity (Cell Rep. 34, (2021); Cell Res. 25, 1285-98 (2015); J. Immunother. Cancer 10, (2022); Cell Rep. 41, (2022); Int. Immunopharmacol. 74, (2019); J. Dig. Dis. 19, (2018); Int. J. Biol. Sci. 17, (2021); Nat. Commun. 13, 1-20 (2022); BMC Cancer 20, (2020); Oncogene 41, 5092-5106 (2022)). A correlation between the expression of inflammasome genes, GSDMD and NF-κB1 in tumour infiltrated immune cells was observed (FIG. 11). Whether 3,2-HPP targets GSDMD-mediated anti-tumour immunity was validated by orthotopically implanting M3-9-M^OVA RMS into the gastrocnemius muscle of male C57BL/6NJ (WT) and C57BL/6N-Gsdmdem4Fcw/J (KO) mice (FIG. 10e).

M3-9-M tumours = assay: Orthotopic M3-9-M rhabdomyosarcoma: tumour immune surveillance, growth, overall survival
Method: Tumour cells were orthotopically implanted into 6-8 week old mice. […] For experiments with rhabdomyosarcoma models, mice were orthotopically implanted with 1.5×10^5 M3-9-M or M3-9-M^OVA cells in 50 μL of PBS into the right-behind leg gastrocnemius muscle using an insulin syringe. RMS tumour volume was calculated by subtracting the volume of the gastrocnemius muscle before tumour implantation from the volume after tumour implantation (length×width×height). […] Tumour measurements were taken twice weekly using skin calipers, from implantation day to either experimental or humane endpoints.
Metabolite compounds were obtained from Sigma-Aldrich and prepared into metabolite stock solutions by dissolving them into UltraPure™ DNase/RNase-Free Distilled Water (Invitrogen™) with 1.0N NaOH (Sigma). The pH of the stock solutions was adjusted to 7.4-7.6 and determination of the endotoxin level of the solutions was completed through a limulus amebocyte lysate (LAL) test. […] To test the metabolite effects on anti-tumour immunity, 100 μL of the metabolite at 83 mg/kg bodyweight per mouse was administered intraperitoneally every 48 hours for seven doses. […] Three doses of 250 μg of either anti-PD-1 or anti-PD-L1 were administered intraperitoneally post tumour implantation on day 10, 13 and 16. To neutralize CD8 T cell in mice, anti-CD8 (clone 2.43; BioXcell) monoclonal antibody was used. 250 μg of anti-CD8 antibody in PBS per mouse was injected intraperitoneally 7 and 1 day before tumour implantation, followed by administering 100 μg of anti-CD8 in PBS into the mice on day 3, 7, and 10.

## O=C(O)CCc1ccccc1O [Compound I-1, 3-(2-hydroxyphenyl)propanoic acid]
IRF pathway
  IRF pathway activation combined with PRR agonists: potentiate
GSDMD; NPARC test
  GSDMD protein denaturation curve: impacted
GSDMD; proteome-wide, 2 mM metabolite, 16 hours
  number of potential protein targets identified (NPARC): 647
[1]; male C57BL/6N-Gsdmdem4Fcw/J (KO) mice
  effect on tumours implanted in GSDMD-KO mice: had no effect
[1]; male C57BL/6NJ (WT) mice
  overall survival: increased overall survival
  tumour growth: decreased tumour growth
M3-9-M tumours; female IMDM-CR mice, M3-9-M tumours, ABX plus 3,2-HPP
  overall survival, combination with ABX vs either treatment alone: even higher overall survival
M3-9-M tumours; female IMDM-CR mice, M3-9-M tumours, 3,2-HPP i.p. plus anti-PD-1
  overall survival, combination with anti-PD-1 vs anti-PD-1 alone: further improvement
M3-9-M tumours; female IMDM-CR mice, M3-9-M, anti-CD8 neutralizing antibody (clone 2.43)
  efficacy of treatment after depletion of CD8 T cells: abrogated the efficacy
M3-9-M tumours; female IMDM-CR mice, i.p. treatment from day 1 post-implantation vs vehicle
  immune surveillance of M3-9-M tumours (overall survival): enhance the immune surveillance
M3-9-M tumours; female IMDM-JAX mice on ABX-supplemented drinking water, M3-9-M tumours
  effect on ABX-reduced immune surveillance: counteracted the negative effect of ABX
M3-9-M tumours; female IMDM-JAX mice, M3-9-M tumours, i.p. 3,2-HPP
  overall survival: increased the overall survival
M3-9-M tumours; male IMDM-CR mice, i.p. treatment from day 1
  response of non-immunogenic M3-9-M tumours to treatment: did not respond
